Measurements published in ChEMBL document CHEMBL4145689, “Tailoring the Substitution Pattern on 1,3,5-Triazine for Targeting Cyclooxygenase-2: Discovery and Structure-Activity Relationship of Triazine-4-Aminophenylmorpholin-3-one Hybrids that Reverse Algesia and Inflammation in Swiss Albino Mice” (J Med Chem, 2018).
Activity calls are given as the source filed them. No cut-off for these calls is given here.

Assays:
[1] = target: T1, Prostaglandin G/H synthase 1 (Ovis aries, UniProt P05979); assay: Inhibition of ovine COX1 pre-incubated for 10 mins before arachidonic acid addition and measured after 2 mins by EIA method
T1 sequence (P05979 whole entry): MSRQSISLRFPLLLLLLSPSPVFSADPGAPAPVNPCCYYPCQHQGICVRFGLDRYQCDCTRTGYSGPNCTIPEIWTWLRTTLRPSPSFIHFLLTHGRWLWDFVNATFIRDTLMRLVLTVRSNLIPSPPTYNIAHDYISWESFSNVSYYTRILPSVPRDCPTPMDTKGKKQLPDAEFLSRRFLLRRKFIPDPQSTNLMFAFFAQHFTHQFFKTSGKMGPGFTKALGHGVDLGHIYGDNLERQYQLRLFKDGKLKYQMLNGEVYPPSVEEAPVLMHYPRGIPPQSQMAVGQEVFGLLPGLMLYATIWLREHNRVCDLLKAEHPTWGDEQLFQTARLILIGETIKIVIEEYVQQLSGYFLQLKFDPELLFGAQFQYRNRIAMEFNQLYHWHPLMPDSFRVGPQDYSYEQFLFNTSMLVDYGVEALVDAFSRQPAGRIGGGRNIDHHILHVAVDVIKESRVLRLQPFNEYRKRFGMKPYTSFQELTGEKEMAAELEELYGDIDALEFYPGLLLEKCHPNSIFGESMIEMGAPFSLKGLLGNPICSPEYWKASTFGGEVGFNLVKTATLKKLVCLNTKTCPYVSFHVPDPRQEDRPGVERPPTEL

Mus musculus [2] = assay: Analgesic activity in Swiss albino mouse assessed as inhibition of acetic acid-induced writhings at 10 mg/kg, ip measured 30 mins post acetic acid challenge; format: functional; settings: 0.5 h
Mus musculus [3] = assay: Anti-inflammatory activity in Swiss albino mouse model of carrageenan-induced-paw edema assessed as inhibition of paw edema at 10 mg/kg, ip after 3 hrs; format: functional
[4] = target: Prostaglandin G/H synthase 1 (Homo sapiens, UniProt P23219); assay: Inhibition of COX1 in human whole blood assessed as A23187-stimulated TxB2 production at 1 uM pre-incubated for 60 mins before A23187 addition and measured after 30 mins by ELISA (reference value: 2 ng/ml); settings: 0.5 h
Prostaglandin G/H synthase 1 (Homo sapiens, UniProt P23219), sequence (P23219 whole entry): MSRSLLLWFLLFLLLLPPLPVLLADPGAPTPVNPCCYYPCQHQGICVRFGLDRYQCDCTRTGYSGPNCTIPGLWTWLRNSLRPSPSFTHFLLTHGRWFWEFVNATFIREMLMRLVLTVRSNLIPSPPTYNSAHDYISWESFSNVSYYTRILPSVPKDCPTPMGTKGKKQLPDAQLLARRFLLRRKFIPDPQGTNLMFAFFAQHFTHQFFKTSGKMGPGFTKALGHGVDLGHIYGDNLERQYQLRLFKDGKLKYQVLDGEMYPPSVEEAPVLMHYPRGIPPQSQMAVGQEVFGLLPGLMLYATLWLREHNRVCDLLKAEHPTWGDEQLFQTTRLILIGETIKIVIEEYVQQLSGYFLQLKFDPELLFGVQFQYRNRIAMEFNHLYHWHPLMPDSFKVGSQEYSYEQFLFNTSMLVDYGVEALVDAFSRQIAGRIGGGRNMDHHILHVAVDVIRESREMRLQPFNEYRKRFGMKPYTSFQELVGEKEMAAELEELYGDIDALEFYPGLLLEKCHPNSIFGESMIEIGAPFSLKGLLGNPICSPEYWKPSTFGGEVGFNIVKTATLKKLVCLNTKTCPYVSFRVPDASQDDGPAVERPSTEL

Mus musculus [5] = assay: Analgesic activity in Swiss albino mouse assessed as inhibition of acetic acid-induced writhings at 5 mg/kg, ip measured 30 mins post acetic acid challenge; format: functional; settings: 0.5 h
Mus musculus [6] = assay: Analgesic activity in ip dosed Swiss albino mouse assessed as inhibition of acetic acid-induced writhings measured 30 mins post acetic acid challenge; format: functional; settings: 0.5 h
Mus musculus [7] = assay: Anti-inflammatory activity in Swiss albino mouse model of carrageenan-induced-paw edema assessed as inhibition of paw edema at 5 mg/kg, ip after 3 hrs; format: functional
Mus musculus [8] = assay: Analgesic activity in substance P pre-treated Swiss albino mouse assessed as inhibition of acetic acid-induced writhings at 5 mg/kg, ip measured 30 mins post acetic acid challenge; format: functional, organism-based
[9] = target: T2, Polyunsaturated fatty acid 5-lipoxygenase (Homo sapiens, UniProt P09917); assay: Inhibition of 5-LOX (unknown origin)
T2 sequence (P09917 whole entry): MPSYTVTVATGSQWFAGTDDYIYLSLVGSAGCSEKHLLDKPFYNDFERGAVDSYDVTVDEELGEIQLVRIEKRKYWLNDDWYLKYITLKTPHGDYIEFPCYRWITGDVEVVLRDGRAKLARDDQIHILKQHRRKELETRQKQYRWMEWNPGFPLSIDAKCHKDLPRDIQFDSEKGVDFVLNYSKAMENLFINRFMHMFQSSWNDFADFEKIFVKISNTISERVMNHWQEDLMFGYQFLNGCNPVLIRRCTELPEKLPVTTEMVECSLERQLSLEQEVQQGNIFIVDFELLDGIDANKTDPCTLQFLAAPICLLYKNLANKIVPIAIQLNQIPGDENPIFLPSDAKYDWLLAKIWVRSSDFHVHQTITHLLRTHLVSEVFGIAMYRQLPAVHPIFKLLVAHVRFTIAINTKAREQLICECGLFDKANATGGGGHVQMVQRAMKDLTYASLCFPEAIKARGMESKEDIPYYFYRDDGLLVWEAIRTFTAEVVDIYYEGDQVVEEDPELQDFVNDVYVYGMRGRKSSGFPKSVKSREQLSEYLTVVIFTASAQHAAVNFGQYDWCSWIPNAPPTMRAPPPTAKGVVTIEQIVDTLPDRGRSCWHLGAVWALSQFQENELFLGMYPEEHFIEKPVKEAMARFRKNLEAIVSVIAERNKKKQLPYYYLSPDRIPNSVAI

Mus musculus [10] = assay: Analgesic activity in […] pre-treated Swiss albino mouse assessed as inhibition of acetic acid-induced writhings at 5 mg/kg, ip measured 30 mins post acetic acid challenge; format: functional, organism-based
Mus musculus [11] = assay: Acute toxicity in Swiss albino mouse assessed as induction of mortality at 50 to 2000 mg/kg, po measured over 14 days post dose; format: organism-based; settings: in vivo, 336 h
Mus musculus [12] = assay: Acute toxicity in Swiss albino mouse assessed as induction of behavioural impairment at 50 to 2000 mg/kg, po measured over 14 days post dose; format: organism-based; settings: in vivo, 336 h
Mus musculus [13] = assay: Acute toxicity in Swiss albino mouse assessed as induction of renal lesions at 50 to 2000 mg/kg, po measured over 14 days post dose by H and E staining based microscopy; format: organism-based; settings: in vivo, 336 h
Mus musculus [14] = assay: Acute toxicity in Swiss albino mouse assessed as induction of myocardial lesions at 50 to 2000 mg/kg, po measured over 14 days post dose by H and E staining based microscopy; format: organism-based; settings: in vivo, 336 h
Mus musculus [15] = assay: Acute toxicity in Swiss albino mouse assessed as induction of hepatic lesions at 50 to 2000 mg/kg, po measured over 14 days post dose by H and E staining based microscopy; format: organism-based; settings: in vivo, 336 h
Mus musculus [16] = assay: Acute toxicity in Swiss albino mouse assessed as induction of congestion in renal tissue at 50 to 2000 mg/kg, po measured over 14 days post dose by H and E staining based microscopy; format: organism-based; settings: in vivo, 336 h
Mus musculus [17] = assay: Acute toxicity in Swiss albino mouse assessed as induction of mesangium shrinkage at 50 to 2000 mg/kg, po measured over 14 days post dose by H and E staining based microscopy; format: organism-based; settings: in vivo, 336 h
Mus musculus [18] = assay: Acute toxicity in Swiss albino mouse assessed as induction of increase in capsular space at 50 to 2000 mg/kg, po measured over 14 days post dose by H and E staining based microscopy; format: organism-based; settings: in vivo, 336 h
[19] = target: T3, Prostaglandin G/H synthase 2 (Homo sapiens) (UniProt P35354)
T3 sequence (whole entry): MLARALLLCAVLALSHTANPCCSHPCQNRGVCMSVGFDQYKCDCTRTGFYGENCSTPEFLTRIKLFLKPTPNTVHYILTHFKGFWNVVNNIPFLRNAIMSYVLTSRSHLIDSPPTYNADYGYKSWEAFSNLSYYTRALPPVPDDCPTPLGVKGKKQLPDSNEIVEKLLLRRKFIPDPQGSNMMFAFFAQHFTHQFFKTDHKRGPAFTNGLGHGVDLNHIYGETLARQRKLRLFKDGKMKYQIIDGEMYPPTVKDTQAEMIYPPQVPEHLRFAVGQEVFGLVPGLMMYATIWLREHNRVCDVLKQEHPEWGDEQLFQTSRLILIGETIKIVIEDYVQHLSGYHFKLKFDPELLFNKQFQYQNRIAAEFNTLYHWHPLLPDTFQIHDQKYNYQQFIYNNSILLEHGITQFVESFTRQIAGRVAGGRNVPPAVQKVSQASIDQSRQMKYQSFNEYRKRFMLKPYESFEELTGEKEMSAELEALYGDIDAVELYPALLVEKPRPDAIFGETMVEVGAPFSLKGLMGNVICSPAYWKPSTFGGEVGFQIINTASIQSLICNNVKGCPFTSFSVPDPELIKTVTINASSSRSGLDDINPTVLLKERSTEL
Description: Binding affinity to human COX2 assessed as binding constant by ITC

[20] = target: T3, Prostaglandin G/H synthase 2 (Homo sapiens); settings: 10 uM

Compound | IC50 [1] | inhibition in vivo at 10 mg/kg (Mus musculus [2]) | inhibition in vivo at 5 mg/kg (Mus musculus [5]) | other results
O=C1COCCN1c1ccc(Nc2nc(Nc3ccc(Cl)cc3)nc(N3CCOCC3)n2)cc1 | 5 µM | – | – | –
COc1ccc2c(c1)c(CC(=O)O)c(C)n2C(=O)c1ccc(Cl)cc1 [INDOMETHACIN] | – | 63% | – | inhibition in vivo at 10 mg/kg (Mus musculus [3]): 30%
O=C1COCCN1c1ccc(Nc2nc(Cl)nc(N3CCCC3)n2)cc1 | 10 µM | 93% | 87% | Activity [4]: 1.9 ng/mL; ED50 (Mus musculus [6]): 2.2 mg/kg; inhibition in vivo at 5 mg/kg (Mus musculus [7]): 38%; Activity (Mus musculus [8]): inactive; IC50 [9]: > 10 µM; inhibition (Mus musculus [10]): Active; Activity (Mus musculus [11]): Non-Toxic; Activity (Mus musculus [12]): Non-Toxic; Activity (Mus musculus [13]): Non-Toxic; Activity (Mus musculus [14]): Non-Toxic; Activity (Mus musculus [15]): Non-Toxic; Activity (Mus musculus [16]): Toxic; Activity (Mus musculus [17]): Toxic; Activity (Mus musculus [18]): Toxic; Ka [19]: 5.37 ×10⁵ /M; Ka [20]: 2.54 ×10⁵ /M
O=C1COCCN1c1ccc(Nc2nc(Cl)nc(N3CCOCC3)n2)cc1 | > 10 µM | – | – | –
O=C1COCCN1c1ccc(Nc2nc(Cl)nc(Nc3ccccc3)n2)cc1 | > 10 µM | 83% | 76% | Activity [4]: 1.7 ng/mL
O=C(NCCOc1nc(Cl)nc(Nc2ccc(N3CCOCC3=O)cc2)n1)c1ccccc1F | > 10 µM | – | – | –
Cc1ccc(-c2cc(C(F)(F)F)nn2-c2ccc(S(N)(=O)=O)cc2)cc1 [CELECOXIB] | – | – | 62% | inhibition in vivo at 5 mg/kg (Mus musculus [7]): 33%
NCCOc1nc(Cl)nc(Nc2ccc(N3CCOCC3=O)cc2)n1 | > 10 µM | – | – | –
O=C1COCCN1c1ccc(Nc2nc(Cl)nc(N3CCN(c4ccccc4)CC3)n2)cc1 | > 10 µM | – | – | –
Nc1nc(Cl)nc(Nc2ccc(N3CCOCC3=O)cc2)n1 | > 10 µM | 74% | 67% | Activity [4]: 1.68 ng/mL
O=C1COCCN1c1ccc(Nc2nc(Cl)nc(OCCCl)n2)cc1 | > 10 µM | – | – | –
O=C1COCCN1c1ccc(Nc2nc(Cl)nc(Nc3ccc(Cl)cc3)n2)cc1 | > 10 µM | 90.2% | 79% | Activity [4]: 1.85 ng/mL; ED50 (Mus musculus [6]): 1.9 mg/kg; inhibition in vivo at 5 mg/kg (Mus musculus [7]): 28%
O=C1COCCN1c1ccc(Nc2nc(Cl)nc(Cl)n2)cc1 | > 10 µM | – | – | –
[N-]=[N+]=NCCOc1nc(Cl)nc(Nc2ccc(N3CCOCC3=O)cc2)n1 | > 10 µM | – | – | –
COC(=O)C(N)Cc1ccc(Oc2nc(Cl)nc(Nc3ccc(N4CCOCC4=O)cc3)n2)cc1 (configuration not stated) | > 10 µM | – | – | –

The next lines start with results.

IC50 [1] | Compound | inhibition in vivo at 10 mg/kg (Mus musculus [2]) | inhibition in vivo at 5 mg/kg (Mus musculus [5]) | other results
> 10 µM | O=C1COCCN1c1ccc(Nc2nc(Cl)nc(NCc3ccccc3)n2)cc1 | – | – | –
> 10 µM | O=C(NCCOc1nc(Cl)nc(Nc2ccc(N3CCOCC3=O)cc2)n1)c1ccc(Cl)s1 | – | – | –
> 10 µM | Cc1ccc(S(=O)(=O)NCCOc2nc(Cl)nc(Nc3ccc(N4CCOCC4=O)cc3)n2)cc1 | – | – | –
50 µM | O=C1COCCN1c1ccc(Nc2nc(Cl)nc(Nc3ccc(Br)cc3)n2)cc1 | – | – | –
> 10 µM | COc1ccc(Nc2nc(Cl)nc(Nc3ccc(N4CCOCC4=O)cc3)n2)cc1 | 79% | 47% | –
> 10 µM | Cc1ccc(Nc2nc(Cl)nc(Nc3ccc(N4CCOCC4=O)cc3)n2)cc1 | – | – | –
> 10 µM | O=C1COCCN1c1ccc(Nc2nc(Cl)nc(NC3CCCCC3)n2)cc1 | 81% | 56% | –
10 µM | O=C1COCCN1c1ccc(Nc2nc(Cl)nc(Nc3ccc(O)cc3)n2)cc1 | 68% | 56% | Activity [4]: 1.64 ng/mL
> 10 µM | O=C(NCCOc1nc(Cl)nc(Nc2ccc(N3CCOCC3=O)cc2)n1)C1CCCN1C(=O)OCc1ccccc1 (configuration not stated) | – | – | –
